According to patent US8865672B2, “Prevention of tissue ischemia and related methods” (The United States of America, as represented by the …, priority 2006, dated 2014):
Square brackets hold non-standard residues; d marks the D form. Ends that are not written are not given here.

What was measured:
HAVSMC [1] = assay: 3D collagen matrix contraction assay, human aortic VSMC; assay type: cell-based; details: HAVSMC, 10% FCS or 100 nM S1P
Procedure: Type I collagen gel (3 mg/ml) with 10×M199 (Gibco, Grand Island, N.Y.) at a 10:1 ratio of collagen to medium was prepared, pH balanced with NaOH and seeded with either HAVSMC or VSMC harvested from aortic segments from C57B16 WT or TSP1 null mice (50,000 cells in 75 μl of gel/well) and aliquoted to 96-well plates (Nunc, Denmark). Plates were incubated for 12 h 37° C. and 5% CO2 allowing for gelation and cell spreading, gently released from the well walls and incubated in serum and additive deficient growth medium with 0.1% BSA in the presence of the indicated treatment agents for 10 h. Contraction was determined by measuring the diameter in perpendicular planes (x, y) of each disk, an average obtained and surface area calculated as (d/2)^2π. Experiments were performed in triplicate. Results represent the mean±SD of at least three separate experiments.
Human aortic VSMC were plated onto 12-well culture plates (Nunc) at a density of 5×10^4 cells/well in SM-GM+2% FCS and cultured until approximately 90% confluent. A translation-blocking antisense morpholino oligonucleotide complementary to human and murine CD47 ([…]; SEQ ID NO: 21) and a five-base mismatch control (CGTgACAGcCAcGACCgACTGCgCA; SEQ ID NO: 22) were obtained from GeneTools (Philomath, Oreg.). Cultured cells were treated as per the manufacturer's recommendation with morpholinos (10 μM) and utilized within 48 hours of treatment.

human platelets [2] = assay: Human platelet adhesion assay; assay type: cell-based; details: fibrinogen or collagen, DEA/NO 10 μM
Procedure: Bacteriological Petri dishes (35×10 mm, Becton Dickinson Labware) were pre-coated with collagen (3 μg/ml) or fibrinogen (15 μg/mL) overnight. Following aspiration of non-adherent matrix, dishes were blocked with 1% BSA. Fresh platelets were washed and suspended in Tyrode's buffer and allowed to adhere for 30 minutes. Plates were washed with PBS, fixed with 0.5% glutaraldehyde and stained with 0.02% toluidine blue. Adherent platelets were counted microscopically. In some experiments platelets were pre-incubated with the Rap1 geranylgeranyltransferase inhibitor GGTI-298 (10 μM) for 30 minutes prior to initiating adhesion.

HAVSMC [3] = assay: Actin cytoskeleton staining (F-actin) in HAVSMC; assay type: cell-based, human
Procedure: VSMC were grown on glass well slides (Lab-Tek, Nunc) under standard growth conditions. Cells were incubated at 37° C. for 1 hour in serum and additive deficient growth medium and the indicated treatment agents, after which the media was removed and the cells were fixed in 4% paraformaldehyde in PBS (pH 7.4, Fisher Scientific) for 15 minutes at room temperature. After washing with DPBS, cells were permeabilized for 5 minutes in 0.1% Triton X-100 in PBS and then blocked in M199E/2% BSA for 30 min at room temperature. Cells were stained for F-actin with 1 unit/200 μl medium/1% BSA of Oregon Green 488 phalloidin (Molecular Probes). Slides were imaged using an Olympus IX70 microscope and photographed at constant exposure and gain. In other experiments VSMC were plated on 24-well culture plates (Nunc, Denmark) in smooth muscle growth medium (50,000 cells/well) and weaned from serum and additives over 24 hours. Cell treatment was performed with the indicated agents in plain medium with 0.1% BSA for 5 minutes. Wells were processed as described above. Following staining with phalloidin cells were incubated in methanol for 30 minutes, samples aliquoted to 96-well black plates and fluorescence read at 520 nm (excitation 495 nm). Data was normalized to total protein. Results represent the mean±SD of at least three separate experiments.

human platelets [4] = assay: cGMP in human platelets; assay type: cell-based; details: washed human platelets in Tyrode's buffer
Procedure: Fresh human platelets at 2×10^5 platelets/μl in Tyrode's buffer or PRP were pre-incubated with the indicated agents for 15 minutes and then challenged with DEA/NO for the indicated time interval at room temperature and total cGMP determined via immunoassay (Amersham, GE Healthcare, Buckinghamshire, UK). Murine WT and TSP1-null platelets were treated with DEA/NO and cGMP flux measured.

[5] = system: murine ASMC (WT, CD36 null, CD47 null); assay: Intracellular cGMP in murine ASMC; assay type: cell-based, mouse
Procedure: Murine ASMC were obtained from aortic segments harvested sterilely from C57B1/6 CD47 null or CD36 null mice as described (Ray et al., Methods Cell Sci 23:185-188, 2001) and cultured in SM-GM (Cambrex)+20% FCS. In the case of CD36 null cells, culture flasks were pre-coated with 1% gelatin prior to cell plating. Wild type C57B1/6 ASMC cultures were prepared as previously described (Isenberg et al., Matrix Biol 24:110-123, 2005). Cell culture purity was determined by immunohistochemistry staining for α-smooth muscle actin. Cells were used within passage 1 to 4 to minimize overgrowth of other cell types.
HUVEC (10^4 cells/well) grown overnight in 96-well culture plates containing full growth medium with 2% FCS and weaned in growth medium without additives and 1% FCS over 24 hrs before treatment with NO donors and other agents in SM-GM without additives+0.1% BSA. Intracellular cGMP levels were determined according to the manufacturer's instructions using an enzyme immunoassay kit (Amersham Biosciences). In other experiments ASMC from wild type and CD36 or CD47 null mice were plated onto 96-well culture plates and incubated overnight in full growth medium. They were then weaned off serum as described to SM-GM+0.1% BSA and treated with NO donor and other agents as indicated. Intracellular cyclic nucleotides were determined via immunoassay.

human platelets [6] = assay: Thrombin-induced human platelet aggregation; assay type: cell-based; details: high shear, thrombin 0.2 U/ml, DEA/NO 10 μM
Procedure: Platelets were pelleted from platelet-rich plasma (PRP) by centrifugation for 10 minutes at 200 g. They were then washed with acid citrate dextrose (ACD) (85 mM citric acid, 65 mM sodium citrate, 100 mM glucose, pH 5.1) at a ratio of 1:7 at room temperature. After pelleting the platelets again and removing the supernatant, the platelets were resuspended in 5 mL of Tyrode's buffer (137 mM NaCl, 3 mM KCl, 12 mM NaHCO3, 0.3 mM NaHPO4, 2 mM CaCl2, 1 mM MgCl2, 5.5 mM glucose, 5 mM HEPES, 3.5 mg/mL BSA, pH 7.4). The final platelet number was adjusted to […] in 500 μl/cuvette of Tyrode's buffer.
Aggregation of human platelets under high shear conditions was assessed using a standard optical aggregometer (Lumi-Dual Aggregometer, Chrono-Log Corp., Havertown, Pa.) at 37° C. and 1200 rpm in a volume of 500 μl buffer with a final platelet concentration of 2×10^5 platelets/μl over a 5 minute interval. Pre-incubation with TSP1 and TSP1-based agents was for 15 minutes prior to addition of thrombin and/or the rapidly releasing nitric oxide donor DEA/NO. In some experiments platelets were pre-incubated with the Rap1 inhibitor GGTI-298 (10 μM) (Calbiochem, La Jolla, Calif.) for 30 minutes prior to initiating aggregation. In other high shear aggregation experiments murine platelets were prepared as above with the following modifications. Mouse blood was collected by retro-orbital bleeding of anesthetized mice using heparinized tubes. PRP was prepared and then diluted with 4 vol. of Tyrodes containing 5 mM EDTA to prevent activation. After collection by centrifugation, platelets were resuspended in 2× initial PRP volume and held at room temperature for less than 1 hour before use. Aggregation conditions consisted of 250 μL of washed platelets stirred at 1200 rpm in a Chronolog Optical aggregometer at 37° C. DEA/NO (10 μM) was added 30 seconds prior to activation and 8-BrcGMP added 15 min prior to activation with 0.2 U/ml human thrombin. Data was collected using Chronolog “Aggrolink” software. Platelet aggregation under static conditions was assessed using a spectrophotometer (Beckman DU 640, Beckman Coulter, Fullerton, Calif.) and determined as a change in absorbance at 400 nm with continuous observation over a five minute interval. The cuvette was inverted once every 60 seconds. Pre-incubation with TSP1 and TSP1-based agents was for 15 minutes prior to addition of thrombin and/or DEA/NO to minimize the formation of thrombin-serpinthrombospondin complexes (Chang & Detwiler, Arch Biochem Biophys. 299:100-104, 1992), which interfere with thrombin-platelet interactions.
Fresh human platelets were suspended in Tyrode's buffer and under low shear conditions thrombin-stimulated aggregation measured as described. Platelets were then treated with peptide C6d (1 μM)±NO (10 μM DEA/NO) and thrombin and aggregation measure.

HUVEC = assay: NO-stimulated HUVEC adhesion on type I collagen; assay type: cell-based, human; details: DEA/NO 10 μM, 1 h
Procedure: Cell adhesion was carried out in 96-well culture plates. After pre-coating wells with type I collagen (3 μg/ml in DPBS) harvested cells were plated at a density of 1×10^4 cells/well in medium plus 0.1% BSA and treatment agents and incubated in 5% CO2 for 1 h. Wells were washed with PBS and cells fixed with 1% glutaraldehyde for 10 min., washed and stained with 1% crystal violet for 20 min. Excess stain was rinsed away, adherent cells treated with 10% acetic acid, and plates read at 570 nm.

Compound: NCCN(CCN)/[N+]([O-])=N/O [DETA/NO, diethyltriamine NONOate]
- collagen gel contraction (HAVSMC [1]): inhibited gel contraction by both agonists

Compound: O=c1onc2cnc3ccccc3n12 [ODQ, Oxadiazole-[4,3-a]quinoxalin-1-one, reference compound]
- decrease in platelet adhesion in response to exogenous NO (human platelets [2]): prevented the decrease in platelet adhesion
- NO-induced actin disassembly (HAVSMC [3]; DEA/NO 10 μM): inhibition of actin disassembly by NO

Compound: CCCCCCCCCCCCC/C=C/[C@@H](O)[C@@H](N)COP(=O)(O)O [S1P, sphingosine-1-phosphate, reference compound]
- F-actin levels (HAVSMC [3]; agent alone (TSP1 2.2 nM, S1P 100 nM)): increased F-actin
- collagen gel contraction (HAVSMC [1]): significant contraction

Compound: GDGV(D-I)TRIR (GDGV[dI]TRIR) [p907, reference compound]
- NO stimulated cGMP in platelets (human platelets [4]): partially inhibited
- NO-stimulated cGMP ([5]; CD36 null MASMC): partially inhibited
- NO-stimulated cGMP ([5]; CD47 null MASMC): did not significantly inhibit
- NO-stimulated cGMP ([5]; WT MASMC): slightly inhibited
- NO-stimulated cGMP ([5]; WT MASMC, listed as 907): inhibited NO-stimulated cGMP responses in WT
- NO delay of thrombin-induced platelet aggregation (human platelets [6]): accelerated platelet aggregation in the presence of NO
- NO-stimulated endothelial cell adhesion on type I collagen (HUVEC): inhibited NO-stimulated endothelial cell adhesion
